Values quoted from earlier work, collected in patent publication US20140315870A1, “COMPOSITION COMPRISING A GLUCOCORTICOID AND A THIAZOLIDINEDIONE FOR INDUCING COMPELTE ADIPOGENIC DIFFERENTIATION OF MAMMALIAN STEM CELLS” (UNIVERSIDAD DEL DESARROLLO, priority 2011, published 2014).

Conditions: chronic consumption in humans

CN(CCOc1ccc(CC2SC(=O)NC2=O)cc1)c1ccccn1 (stereo not shown) [rosiglitazone]
increase in the chance for cardiovascular accidents: 50%
